This assay has as its target T1, F508delCFTR (Homo sapiens, UniProt P13569, DEL508-508).
T1 construct: expressed in transfected cells; host or cells: CFBE41o- human lung derived epithelial cells (CFBE41o-F508delCFTR-HRP), doxycycline-inducible
The assay can be described thus: Cell Surface Expression-Horse Radish Peroxidase (CSE-HRP) Assay.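 As to EC50 (with co-corrector): co-corrector chromenyl benzoic acid corrector at 2 or 3 µM.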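 As to Maximum % activity (without co-corrector): % of on-plate positive control chromenyl benzoic acid corrector at 2 or 3 µM.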 In kind it is cell-based. Conditions: for Maximum % activity (with co-corrector) / Emax: maximum at any tested concentration; for Emax: read-out: Maximum % activity (without co-corrector). The method in brief: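 Corrector compounds were given as 8-point 3-fold series from 20 or 30 μM, with or without a 2 μM co-corrector, for 18-24 h at 33 °C. Surface HRP was read by luminol luminescence as % of positive control; variable-Hill-slope sigmoidal fitting gave EC50 from triplicate plates.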

[1] abbreviates: test compound alone, without co-corrector, read-out: EC50 (without co-corrector).
Setting [2] is: with co-corrector, read-out: EC50 (with co-corrector).

For orientation: EC50 means the concentration at which the effect is half-maximal.

Each structure is given as a SMILES string. Where two headings read alike, the source gives them in different places.

T1 sequence (P13569 with tags, fused parts or gaps DEL508-508): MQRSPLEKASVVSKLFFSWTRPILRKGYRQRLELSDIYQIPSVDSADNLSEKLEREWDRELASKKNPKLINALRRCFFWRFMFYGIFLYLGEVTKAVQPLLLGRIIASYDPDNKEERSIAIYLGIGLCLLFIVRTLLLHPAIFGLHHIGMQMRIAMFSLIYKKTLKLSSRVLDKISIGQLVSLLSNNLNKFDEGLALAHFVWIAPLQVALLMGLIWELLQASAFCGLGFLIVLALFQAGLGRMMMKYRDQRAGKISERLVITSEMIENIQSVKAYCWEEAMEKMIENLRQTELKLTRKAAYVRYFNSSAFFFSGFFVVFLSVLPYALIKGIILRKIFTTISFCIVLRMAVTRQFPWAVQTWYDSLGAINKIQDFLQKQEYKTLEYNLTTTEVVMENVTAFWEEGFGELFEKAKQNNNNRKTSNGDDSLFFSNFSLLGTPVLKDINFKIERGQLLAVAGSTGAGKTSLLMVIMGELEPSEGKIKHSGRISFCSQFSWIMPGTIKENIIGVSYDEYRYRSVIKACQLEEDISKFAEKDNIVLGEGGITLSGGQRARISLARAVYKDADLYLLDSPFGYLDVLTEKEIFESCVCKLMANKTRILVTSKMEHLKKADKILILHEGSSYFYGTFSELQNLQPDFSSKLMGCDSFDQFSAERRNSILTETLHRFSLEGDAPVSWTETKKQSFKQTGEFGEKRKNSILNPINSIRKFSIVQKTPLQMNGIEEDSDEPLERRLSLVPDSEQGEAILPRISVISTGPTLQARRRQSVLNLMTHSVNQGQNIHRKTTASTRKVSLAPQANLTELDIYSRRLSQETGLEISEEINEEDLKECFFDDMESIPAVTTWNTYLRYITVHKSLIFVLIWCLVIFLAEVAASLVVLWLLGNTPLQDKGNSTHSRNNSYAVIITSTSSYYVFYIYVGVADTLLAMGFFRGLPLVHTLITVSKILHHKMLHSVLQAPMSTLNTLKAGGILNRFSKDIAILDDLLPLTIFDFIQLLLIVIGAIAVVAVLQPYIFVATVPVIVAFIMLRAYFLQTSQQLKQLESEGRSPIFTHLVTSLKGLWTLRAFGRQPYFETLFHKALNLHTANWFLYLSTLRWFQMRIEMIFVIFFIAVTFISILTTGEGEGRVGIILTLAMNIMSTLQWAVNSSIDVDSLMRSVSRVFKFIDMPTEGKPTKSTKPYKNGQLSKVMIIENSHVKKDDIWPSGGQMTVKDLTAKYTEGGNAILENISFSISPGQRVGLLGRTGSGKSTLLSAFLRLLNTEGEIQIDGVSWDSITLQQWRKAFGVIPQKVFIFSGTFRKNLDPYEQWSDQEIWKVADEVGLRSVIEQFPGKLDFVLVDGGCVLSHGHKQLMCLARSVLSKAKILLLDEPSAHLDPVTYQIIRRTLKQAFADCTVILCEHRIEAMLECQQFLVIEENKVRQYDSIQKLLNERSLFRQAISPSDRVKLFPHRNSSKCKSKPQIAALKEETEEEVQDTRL

Take `COc1ncc(C2CCC2)cc1C1(C(=O)NS(=O)(=O)c2cccc3ccn(C)c23)CC1` [Example I-20, 1-(5-cyclobutyl-2-methoxypyridin-3-yl)-N-(1-methyl-1H-indole-7-sulfonyl)cyclopropane-1-carboxamide]: the EC50 under setting [1] was under 3 µM and the 50% effective concentration (EC50) under setting [2] is under 3 µM. Also, the “Maximum % activity (with co-corrector)” value (with co-corrector) is “+++ (≥350)”. In addition, the Emax (without co-corrector) is over 150%.

Regarding `COc1ncc(C2CCC2)cc1C1(C(=O)NS(=O)(=O)c2cccc3[nH]ccc23)CC1` [Example I-21, 1-(5-cyclobutyl-2-methoxypyridin-3-yl)-N-(1H-indole-4-sulfonyl)cyclopropane-1-carboxamide], the EC50 runs as follows: under setting [1], under 3 µM; under setting [2], under 3 µM. Besides, where the note is “with co-corrector”, the “Maximum % activity (with co-corrector)” value is given as “+++ (≥350)”. Besides, the Emax (without co-corrector) was over 150%.

On to `COc1ncc(C(F)(F)F)cc1C1(C(=O)NS(=O)(=O)c2cccc3[nH]ccc23)CC1` [Example I-22, N-(1H-indole-4-sulfonyl)-1-[2-methoxy-5-(trifluoromethyl)pyridin-3-yl]cyclopropane-1-carboxamide], for which the EC50 reads like this: under setting [1], 3 to 10 µM; under setting [2], under 3 µM. Also, under “with co-corrector”, the “Maximum % activity (with co-corrector)” value is “+++ (≥350)”. Where the note is “without co-corrector”, the Emax was over 150%.

`COc1ccc(C2CCC2)cc1C1(C(=O)NS(=O)(=O)c2cccn3nccc23)CCC1` [Example I-23, 1-(5-cyclobutyl-2-methoxyphenyl)-N-(pyrazolo[1,5-a]pyridine-4-sulfonyl)cyclobutane-1-carboxamide]: the EC50 is 3 to 10 µM under setting [1] and under 3 µM under setting [2]. In addition, the “Maximum % activity (with co-corrector)” value (with co-corrector) is reported as “+++ (≥350)”. For the same molecule, for the setting “without co-corrector”, the Emax is over 150%.

As to `COc1ccc(C2CCC2)cc1C1(C(=O)NS(=O)(=O)c2cccc3ncn(C)c23)CCC1` [Example I-24, 1-(5-cyclobutyl-2-methoxyphenyl)-N-(1-methyl-1H-benzimidazole-7-sulfonyl)cyclobutane-1-carboxamide], the EC50 was under 3 µM under setting [1] and under 3 µM under setting [2]. The “Maximum % activity (with co-corrector)” value (with co-corrector) is on record as “+++ (≥350)”. Also, the Emax (without co-corrector) was over 150%.

In the case of `COc1ccc(C2CCC2)cc1C1(C(=O)NS(=O)(=O)c2cccc3cnn(C)c23)CCC1` [Example I-25, 1-(5-cyclobutyl-2-methoxyphenyl)-N-(1-methyl-1H-indazole-7-sulfonyl)cyclobutane-1-carboxamide], the EC50 under setting [1] is under 3 µM and the concentration giving a half-maximal response (EC50) under setting [2] was under 3 µM. In addition, the “Maximum % activity (with co-corrector)” value (with co-corrector) is “+++ (≥350)”. Also, for the setting “without co-corrector”, the Emax is over 150%.

Turning to `COc1ccc(C2CC2)cc1C1(C(=O)NS(=O)(=O)c2cccc3c2CCCN3)CCC1` [Example I-27, 1-(5-cyclopropyl-2-methoxyphenyl)-N-(1,2,3,4-tetrahydroquinoline-5-sulfonyl)cyclobutane-1-carboxamide], the EC50 under setting [1] was in the range of 3 to 10 µM and the EC50 under setting [2] is under 3 µM. Moreover, where the note is “with co-corrector”, the “Maximum % activity (with co-corrector)” value was “+++ (≥350)”. The Emax (without co-corrector) was over 150%.

Take `COc1ccc(OC)c(C2(C(=O)NS(=O)(=O)c3cccc4ccccc34)CC2)c1` [Example I-28, 1-(2,5-dimethoxyphenyl)-N-(naphthalene-1-sulfonyl)cyclopropane-1-carboxamide]: the EC50 by setting is: under setting [1], under 3 µM; under setting [2], under 3 µM. For the same molecule, where the note is “with co-corrector”, the “Maximum % activity (with co-corrector)” value is reported as “+++ (≥350)”. For the same molecule, where the note is “without co-corrector”, the Emax is over 150%.

On to `COc1ccc(OC)c(C2(C(=O)NS(=O)(=O)c3cccc4ncccc34)CC2)c1` [Example I-29, 1-(2,5-dimethoxyphenyl)-N-(quinoline-5-sulfonyl)cyclopropane-1-carboxamide], for which the EC50 is under 3 µM under setting [1] and under 3 µM under setting [2]. Further, the “Maximum % activity (with co-corrector)” value (with co-corrector) is “+++ (≥350)”. Besides, the Emax (without co-corrector) is over 150%.

As to `CN(C)c1ncc(C(F)(F)F)cc1C1(C(=O)NS(=O)(=O)c2cccc3ccccc23)CC1` [Example I-30, 1-[2-(dimethylamino)-5-(trifluoromethyl)pyridin-3-yl]-N-(naphthalene-1-sulfonyl)cyclopropane-1-carboxamide], the EC50 is under 3 µM under setting [1] and under 3 µM under setting [2]. The “Maximum % activity (with co-corrector)” value (with co-corrector) is “+++ (≥350)”. For the same molecule, for the setting “without co-corrector”, the Emax was over 150%.

`CCOc1ccc(OC)c(C2(C(=O)NS(=O)(=O)c3cccc4ncccc34)CC2)c1` [Example I-31, 1-(5-ethoxy-2-methoxyphenyl)-N-(quinoline-5-sulfonyl)cyclopropane-1-carboxamide]: the EC50 is, setting by setting: under setting [1], under 3 µM; under setting [2], under 3 µM. In addition, under “with co-corrector”, the “Maximum % activity (with co-corrector)” value is recorded as “+++ (≥350)”. Also, the Emax (without co-corrector) was over 150%.

Consider `COc1ccc(OC2CCC2)cc1C1(C(=O)NS(=O)(=O)c2cccc3ncccc23)CC1` [Example I-32, 1-[5-(cyclobutyloxy)-2-methoxyphenyl]-N-(quinoline-5-sulfonyl)cyclopropane-1-carboxamide], for which the EC50 by setting is: under setting [1], under 3 µM; under setting [2], under 3 µM. For the setting “with co-corrector”, the “Maximum % activity (with co-corrector)” value is “+++ (≥350)”. Also, the Emax (without co-corrector) was over 150%.

In the case of `COc1ccc(C2CCC2)cc1C1(C(=O)NS(=O)(=O)c2cccc3nc(C)ccc23)CCC1` [Example I-33, 1-(5-cyclobutyl-2-methoxyphenyl)-N-(2-methylquinoline-5-sulfonyl)cyclobutane-1-carboxamide], the half-maximal effective concentration (EC50) by setting is: under setting [1], 3 to 10 µM; under setting [2], under 3 µM. In addition, under “with co-corrector”, the “Maximum % activity (with co-corrector)” value is on record as “+++ (≥350)”. Moreover, the Emax (without co-corrector) was over 150%.

For `COc1ccc(C(C)(C)C)cc1C1(C(=O)NS(=O)(=O)c2cccc3ncccc23)CC1` [Example I-34, 1-(5-tert-butyl-2-methoxyphenyl)-N-(quinoline-5-sulfonyl)cyclopropane-1-carboxamide], the concentration for a half-maximal effect (EC50) is under 3 µM under setting [1] and under 3 µM under setting [2]. Also, where the note is “with co-corrector”, the “Maximum % activity (with co-corrector)” value is on record as “+++ (≥350)”. In addition, for the setting “without co-corrector”, the Emax is over 150%.

Consider `COc1ccc(C(C)C)cc1C1(C(=O)NS(=O)(=O)c2cccc3ncccc23)CC1` [Example I-35, 1-[2-methoxy-5-(propan-2-yl)phenyl]-N-(quinoline-5-sulfonyl)cyclopropane-1-carboxamide], for which the EC50 under setting [1] was under 3 µM and the EC50 under setting [2] is under 3 µM. For the same molecule, the “Maximum % activity (with co-corrector)” value (with co-corrector) is “+++ (≥350)”. Also, the Emax (without co-corrector) is over 150%.

Turning to `COc1cc(F)c(C(C)C)cc1C1(C(=O)NS(=O)(=O)c2cccc3ncccc23)CC1` [Example I-36, 1-[4-fluoro-2-methoxy-5-(propan-2-yl)phenyl]-N-(quinoline-5-sulfonyl)cyclopropane-1-carboxamide], the EC50 runs as follows: under setting [1], under 3 µM; under setting [2], under 3 µM. For the same molecule, under “with co-corrector”, the “Maximum % activity (with co-corrector)” value is on record as “+++ (≥350)”. The Emax (without co-corrector) was over 150%.

For the molecule `COc1ccc(C(F)(F)F)cc1C1(C(=O)NS(=O)(=O)c2cccc3ncccc23)CC1` [Example I-37, 1-[2-methoxy-5-(trifluoromethyl)phenyl]-N-(quinoline-5-sulfonyl)cyclopropane-1-carboxamide], the EC50 reads like this: under setting [1], under 3 µM; under setting [2], under 3 µM. The “Maximum % activity (with co-corrector)” value (with co-corrector) is listed as “+++ (≥350)”. The Emax (without co-corrector) is over 150%.

For `COc1ccc(C23CC(C2)C3)cc1C1(C(=O)NS(=O)(=O)c2cccc3ncccc23)CC1` [Example I-38, 1-[5-(bicyclo[1.1.1]pentan-1-yl)-2-methoxyphenyl]-N-(quinoline-5-sulfonyl)cyclopropane-1-carboxamide], the EC50 under setting [1] is under 3 µM and the EC50 under setting [2] is under 3 µM. Moreover, the “Maximum % activity (with co-corrector)” value (with co-corrector) is given as “+++ (≥350)”. Besides, the Emax (without co-corrector) is over 150%.

In the case of `COc1ccc(C(C)(C)C)cc1C1(C(=O)NS(=O)(=O)c2cccc3c2CCCN3)CC1` [Example I-39, 1-(5-tert-butyl-2-methoxyphenyl)-N-(1,2,3,4-tetrahydroquinoline-5-sulfonyl)cyclopropane-1-carboxamide], the EC50 under setting [1] is under 3 µM and the concentration giving a half-maximal response (EC50) under setting [2] is under 3 µM. Moreover, for the setting “with co-corrector”, the “Maximum % activity (with co-corrector)” value was “+++ (≥350)”. Besides, the Emax (without co-corrector) was over 150%.

As for `COc1ccc(C)c(OC)c1C1(C(=O)NS(=O)(=O)c2cccc3ccccc23)CC1` [Example I-40, 1-(2,6-dimethoxy-3-methylphenyl)-N-(naphthalene-1-sulfonyl)cyclopropane-1-carboxamide], the concentration giving a half-maximal response (EC50) reads like this: under setting [1], under 3 µM; under setting [2], under 3 µM. Besides, under “with co-corrector”, the “Maximum % activity (with co-corrector)” value is “+++ (≥350)”. Further, the Emax (without co-corrector) was over 150%.

In the case of `COc1ccc(C)c(OC)c1C1(C(=O)NS(=O)(=O)c2cccc3ncccc23)CC1` [Example I-41, 1-(2,6-dimethoxy-3-methylphenyl)-N-(quinoline-5-sulfonyl)cyclopropane-1-carboxamide], the EC50 reads like this: under setting [1], under 3 µM; under setting [2], under 3 µM. Also, the “Maximum % activity (with co-corrector)” value (with co-corrector) is on record as “+++ (≥350)”. Besides, under “without co-corrector”, the Emax was over 150%.

Regarding `COc1ccc(C)c(OC)c1C1(C(=O)NS(=O)(=O)c2cccc3[nH]ccc23)CC1` [Example I-42, 1-(2,6-dimethoxy-3-methylphenyl)-N-(1H-indole-4-sulfonyl)cyclopropane-1-carboxamide], the concentration for a half-maximal effect (EC50) was under 3 µM under setting [1] and under 3 µM under setting [2]. In addition, the “Maximum % activity (with co-corrector)” value (with co-corrector) is “+++ (≥350)”. Further, the Emax (without co-corrector) was over 150%.

In the case of `COc1ccc(C)c(OC)c1C1(C(=O)NS(=O)(=O)c2cccc3nc(C)ccc23)CC1` [Example I-43, 1-(2,6-dimethoxy-3-methylphenyl)-N-(2-methylquinoline-5-sulfonyl)cyclopropane-1-carboxamide], the EC50 is, setting by setting: under setting [1], under 3 µM; under setting [2], under 3 µM. The “Maximum % activity (with co-corrector)” value (with co-corrector) is reported as “+++ (≥350)”. The Emax (without co-corrector) was over 150%.

These data come from patent US10829473B2, “Modulators of the cystic fibrosis transmembrane conductance regulator protein and methods of use” (AbbVie Overseas S.Á.R.L., priority 2017, dated 2020).
